# Measurements taken from a melting point compilation (Tetko et al.).
row,SMILES,melting point
1,CCc1ccccc1OCC(=O)NN,107 to 109 °C
2,Cc1cc(C(=O)CCl)c(C)n1CC(F)(F)F,143 to 145 °C
3,O=C(Nc1ccccc1C(=O)O)c1ccccc1I,204 to 206 °C
4,O=C(O)c1cc(C2CC2)nc2c1cnn2Cc1ccccc1,209 to 211 °C
5,CN(C)S(=O)(=O)c1ccc(N)nc1,150 to 152 °C
6,COc1ccc(S(N)(=O)=O)cc1C(=O)O,224 to 226 °C
7,O=C(O)c1ccc(Cl)c(S(=O)(=O)N2CCCC2)c1,239 to 241 °C
8,O=S1(=O)CCC(Cc2nnc(S)o2)C1 (configuration not stated),160 to 162 °C
9,O=C(O)c1cnn(-c2ccc(F)cc2)n1,214 to 216 °C
10,O=S(=O)(c1ccc(F)cc1F)N1CCNCC1,93 to 95 °C
11,Nc1cccn(Cc2ccccc2)c1=O,119 to 121 °C
12,Cc1ccc(-c2cc(CS(=O)(=O)Cl)on2)cc1,119 to 121 °C
13,CC(C)CCn1nc(C(=O)O)c2ccccc2c1=O,133 to 135 °C
14,NC(=NO)c1ccccc1OCc1ccccc1,120 to 122 °C
15,N#CCc1cc(Br)cnc1O,209 to 211 °C
16,Cc1ncsc1C(=O)Cl,62 to 64 °C
17,Cc1ccc(CO)cc1N,108 to 110 °C
18,COC(=O)c1c(C)n(C2CC2)c2ccc(O)cc12,193 to 195 °C
19,O=C(O)c1cc(/C=C/c2ccc(OC(F)(F)F)cc2)nc2ccc(Br)cc12,311 to 313 °C
20,NC(=NO)c1ccccc1CN1CCC(O)CC1,137 to 139 °C
21,O=C(O)c1cccc(OCc2ccccc2)c1,113 to 115 °C
22,O=C1OCCc2cnc3ccnn3c21,213 to 215 °C
23,CC(=O)NC1CCC(=O)CC1,136 to 140 °C
24,COc1ccc(NS(=O)(=O)c2ccc(N3CCCC3)c(N)c2)cc1,40 to 42 °C

row,SMILES,melting point
1,NCC(O)CS(=O)(=O)c1cccs1 (configuration not stated),111 to 113 °C
2,Cc1ccc(CNC(=O)CCl)cc1,117 to 119 °C
3,CCC(CC)n1nc(C(=O)O)cc1C,110 to 112 °C
4,CN(C)c1ccc(C#N)c(N)c1,109 to 111 °C
5,Cn1c(=O)c2nc(SCC(=O)O)[nH]c2n(C)c1=O,259 to 261 °C
6,Nc1cc(C(=O)O)c2ccccc2c1,178 to 180 °C
7,CC1CCN(CCCC(N)=NO)CC1,98 to 100 °C
8,Fc1ccc(NCc2cccnc2)cc1,89 to 91 °C
9,Cn1nc(Br)c2c(Cl)ncnc21,115 to 117 °C
10,Clc1ccc(-c2nnc(Cl)c3ccccc23)cc1Cl,219 to 221 °C
11,COc1ccc(C(N)C(=O)O)cc1 (configuration not stated),232 to 234 °C
12,Clc1cc2c(cc1Br)OCCN2,124 to 126 °C
13,c1ccc(NCc2cccc3ccccc23)cc1,54 to 56 °C
14,CNCc1ccc(O)cc1,103 to 105 °C
15,Cc1ccc(S(=O)(=O)N2CCCCC2)cc1N,106 to 110 °C
16,O=Cc1ccc(OCc2occc2C(=O)O)cc1,145 to 147 °C
17,O=C(c1cc(F)ccc1F)c1ccccc1Cl,67 to 69 °C
18,Nc1c(Br)ccc(Br)c1C(=O)O,145 to 147 °C
19,CC(=O)Nc1ccc(SCC(=O)O)cc1,156 to 158 °C
20,N#Cc1ccc2ncc(C=O)n2c1,184 to 186 °C
21,O=C(O)CCNC(=O)Cc1ccccc1,109 to 111 °C
22,O=C(c1ccc(Br)cc1)C(F)(F)F,29 to 31 °C
23,COc1cccc(C2(C)NC(=O)NC2=O)c1 (configuration not stated),119 to 121 °C
24,CSc1snc(O)c1C#N,230 to 232 °C

row,SMILES,melting point
1,Cc1ccc(NC(=O)CCl)c(C)c1,153 to 155 °C
2,Cc1nn(Cc2ccccc2)c(C)c1C=O,72 to 74 °C
3,CS(=O)(=O)C(Cc1ccccc1)C(=O)O (configuration not stated),116 to 118 °C
4,COc1cc(Br)c(S(=O)(=O)Cl)cc1OC,92 to 94 °C
5,OCCN1CCN(Cc2ccsc2)CC1,68 to 70 °C
6,COc1ccc2cc(C(N)=S)ccc2c1,188 to 190 °C
7,CC(=O)N1CCCCC1C(=O)O (configuration not stated),137 to 139 °C
8,O=C(O)c1noc(-c2ccccc2Cl)n1,119 to 121 °C
9,Nc1nc2cc(Cl)cc(Br)c2o1,228 to 230 °C
10,O=C(O)c1ccc(SCc2cn3ccccc3n2)cc1,102 to 103 °C
11,CC1(n2cc(C=O)cn2)CCS(=O)(=O)C1 (configuration not stated),84 to 86 °C
12,O=C(O)C1CSC2(c3ccccc3)CCC(=O)N12 (configuration not stated),173 to 175 °C
13,CCN(CC)S(=O)(=O)c1ccc(NN)nc1,134 to 136 °C
14,N#Cc1cccnc1-n1cccn1,114 to 116 °C
15,Cc1cc(NC(=O)CCl)n(-c2ccc(F)cc2)n1,128 to 130 °C
16,CCc1cccc2c(CC#N)c[nH]c12,115 to 117 °C
17,O=C1CC2(CCCCC2)C(=O)N1,132 to 140 °C
18,Cc1nn(-c2ccccc2)c(C)c1C(=O)C(=O)O,206 to 208 °C
19,CC(Oc1cccnc1)C(=O)O (configuration not stated),126 to 128 °C
20,COc1ccc(C(=O)O)cc1S(=O)(=O)Nc1ccc(C)cc1,258 to 260 °C
21,CC1(c2ccco2)NC(=O)NC1=O (configuration not stated),179 to 181 °C
22,CC(C)(C)Oc1ccc(C(=O)O)cc1,139 to 141 °C
23,O=C(O)c1cc2c(s1)-c1ccccc1OC2,236 to 238 °C
24,COc1ccc(C(=O)c2ccc(C)cc2)cc1,88 to 90 °C

row,SMILES,melting point
1,N#CC1(NC(=O)c2ccccc2)CCC1,126 to 128 °C
2,CC(Oc1cccc(O)c1)C(N)=O (configuration not stated),129 to 131 °C
3,Cc1ccc(-n2c(-c3ccccc3)cnc2S)c(C)c1,247 to 249 °C
4,O=C(O)C1CC1c1ccc(OC(F)F)cc1 (configuration not stated),73 to 75 °C
5,CS(=O)(=O)Cc1ccc(S(=O)(=O)Cl)cc1,127 to 129 °C
6,CNC(C(N)=O)c1cccc(Br)c1 (configuration not stated),111 to 113 °C
7,CCc1cc(Cl)nc(-c2ccc([N+](=O)[O-])cc2)n1,103 to 105 °C
8,O=C(c1cc(Cl)ccc1[N+](=O)[O-])N1CCCC1,157 to 159 °C
9,CCc1cc2c(CCl)cc(=O)oc2cc1O,216 to 218 °C
10,O=S(=O)(Cl)c1c[nH]c2nccc(Br)c12,177 to 179 °C
11,COC(=O)CC1c2ccccc2CCN1S(C)(=O)=O (configuration not stated),103 to 105 °C
12,Cc1c(C(=O)O)nnn1-c1ccc2ncccc2c1,219 to 221 °C
13,Clc1ccc(NCc2ccccn2)cc1,87 to 89 °C
14,Cc1ccc(C(N)=O)c(F)c1,145 to 147 °C
15,CC(C)(C)c1cc(C(=O)O)[nH]n1,195 to 197 °C
16,Cn1nnnc1-c1cccc(N)c1,147 to 149 °C
17,O=C(O)c1c[nH]c2cccc(Br)c12,159 to 161 °C
18,Cc1nc(C2(NC(=O)CCl)CCCCC2)no1,93 to 95 °C
19,CNS(=O)(=O)c1ccc(S(=O)(=O)Cl)cc1,99 to 101 °C
20,CSc1ncc(C(=O)O)n1-c1ccccc1,206 to 208 °C
21,NC(=O)c1cc(-c2cccs2)on1,190 to 192 °C
22,NC1(C(=O)O)CCOC1 (configuration not stated),244 to 246 °C
23,Nc1cc(CO)ccc1Cl,97 to 99 °C
24,CSCCC(NS(=O)(=O)c1ccccc1)C(=O)O (configuration not stated),103 to 105 °C

row,SMILES,melting point
1,OCc1c(Cl)nc2ccccn12,177 to 179 °C
2,Cc1c(S(=O)(=O)Cl)cnn1-c1ccccc1Cl,98 to 100 °C
3,NC(=O)CC(F)(F)F,101 to 103 °C
4,O=C(O)C1CC2(CCCC2)C1,29 to 31 °C
5,O=C1CCc2c(Cl)cc(Cl)cc21,109 to 111 °C
6,O=Cc1ccc(-c2ccc([N+](=O)[O-])cc2Br)o1,132 to 136 °C
7,Cc1nn(Cc2c(Cl)cccc2Cl)c2sc(C(=O)O)cc12,282 to 284 °C
8,CC(C)(C)OC(=O)N1C2CCC1CC(O)C2 (configuration not stated),140 to 142 °C
9,CCC(=O)N1CCCC(C(=O)O)C1 (configuration not stated),117 to 119 °C
10,CC(C)CCNS(=O)(=O)Cc1ccc(N)cc1,111 to 113 °C
11,O=C(O)C1=Cc2cc(F)ccc2OC1,209 to 211 °C
12,OCc1coc(-c2ccccc2)n1,79 to 81 °C
13,CC(C)Cn1ncnc1CO,92 to 94 °C
14,CCn1c(C)c(C(=O)O)c2cc(OC)ccc21,173 to 175 °C
15,O=C(NO)C1CC1,127 to 129 °C
16,O=C(O)c1c[nH]c2ccc(I)cc2c1=O,286 to 288 °C
17,C=CCOc1ccccc1C(=O)O,58 to 60 °C
18,COc1ccccc1OCC(=O)NN,101 to 103 °C
19,O=C(O)C1CCN(C(=O)c2ccccn2)CC1,146 to 148 °C
20,CCOc1ccc(C2(C(=O)O)CC2)cc1,118 to 120 °C
21,Cc1cc(C(=O)NCC(C)C)ccc1N,91 to 93 °C
22,Cc1cc(-c2nnc(CCl)o2)c(C)o1,62 to 64 °C
23,[N-]=[N+]=Nc1cccc2cccnc12,42 to 44 °C
24,Cc1cc(C(=O)CCl)c(C)n1-c1cccc(Cl)c1,116 to 118 °C

row,SMILES,melting point
1,COC(=O)c1ccc(N)c(OCC(F)(F)F)c1,117 to 119 °C
2,Cc1ccc(NC(=O)CCl)cc1Br,180 to 181 °C
3,NC(=O)CSc1nnc(S)s1,192 to 194 °C
4,CC(NC(=O)c1ccccc1N)c1ccccc1 (configuration not stated),127 to 129 °C
5,Nc1ncn(-c2ccncc2)n1,213 to 215 °C
6,Cc1ccc(-c2nc(CC(=O)O)cs2)cc1,139 to 141 °C
7,COC(=O)c1ccc(COc2ccc(C=O)cc2OC)cc1,129 to 131 °C
8,Cc1ccc2cc(CCl)c(Cl)nc2c1C,109 to 111 °C
9,Ic1ccccc1-c1nn[nH]n1,217 to 219 °C
10,COc1ccc(C(=O)NNC(=O)CCl)cc1OC,173 to 175 °C
11,O=C(O)c1ccc(C2SCCS2)cc1,166 to 168 °C
12,OC(c1ccc(Cl)cc1)c1cccnc1 (configuration not stated),106 to 108 °C
13,COc1ccc(Br)c(-c2nnc(N)o2)c1,189 to 191 °C
14,COc1ccc(C(=O)O)cc1OCc1ccccn1,219 to 221 °C
15,Cn1c(C(=O)O)c(Cl)c2ccccc21,233 to 235 °C
16,Cc1noc2nc(C(C)C)cc(C(=O)O)c12,158 to 160 °C
17,CC(C)C(NC(=O)c1ccc([N+](=O)[O-])cc1Cl)C(=O)O (configuration not stated),145 to 147 °C
18,O=c1[nH]c(N2CCOCC2)cc2ccccc12,212 to 214 °C
19,O=C1c2ccccc2N2C(=O)CCC2(C(=O)O)N1Cc1ccccc1 (configuration not stated),134 to 136 °C
20,CN(C)S(=O)(=O)c1ccc(/C=C/C(=O)O)cc1,268 to 270 °C
21,Cn1cc(C=O)c(-c2cc3ccccc3o2)n1,151 to 153 °C
22,CCN(CC)S(=O)(=O)c1ccc(O)c([N+](=O)[O-])c1,82 to 84 °C
